Data: patent US20260137706A1, “METHODS OF TREATING INFLAMMATORY DISEASES” (INTERLINE THERAPEUTICS, INC., priority 2023, published 2026)
Like-named read-outs stand apart in the source and are kept apart here.

Tests used:
[1] = target: T1, GST-RIPK2 fusion protein (human RIPK2, amino acids 1-310) (Homo sapiens, UniProt O43353); test: RIPK2 binding competition assay (TR-FRET, Tracer 199 displacement); settings: 10 nM Tracer 199, 1 nM GST-RIPK2, read-out: RIPK2 IC50
T1 construct: made in house; host or cells: baculovirus infected Sf9 cells
Summary of the method: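 GST-RIPK2 (human aa 1-310, Sf9-expressed; final 1 nM) with Tracer 199 (final 10 nM) and Tb-anti-GST (final 0.5 nM) in Tris pH 7.5 buffer, 45 min at 22 °C. TR-FRET 665/620 nm ratio after 337 nm excitation; normalized to no-inhibitor (0%) and no-protein (−100%), giving IC50.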

[2] = target: T2, binding of His-XIAP(BIR2)-avi fusion protein to GST-RIPK2 fusion protein (RIPK2/XIAP) (Homo sapiens, UniProt O43353); test: RIPK2-XIAP binding competition PPI assay (TR-FRET); settings: for Emax: read-out: PPI Amax bin; for IC50: read-out: PPI IC50 bin
T2 construct: made in house; host or cells: baculovirus infected Sf9 cells
Summary of the method: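 Compounds (in DMSO, 100-fold stock) incubated 120 min at 23 °C with 1 nM GST-RIPK2 (aa 1-310) and 25 nM His-XIAP(BIR2 aa 152-231)-avi, plus anti-His-XL665 and anti-GST-Tb, in pH 7.5 Tris buffer. Read-out: 665/520 nm emission ratio. Normalized to no-inhibitor (0%) and 50 nM GSK583 (−100%); Amax binned A–D.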

[3] = test system: NF-κB pathway (SEAP) in THP1-Dual cells; test: THP-1 Dual cell SEAP assay (L18-MDP stimulated); type: cell-based; settings: Homo sapiens, THP1-Dual, read-out: NF-κB THP1 IC50 bin
Summary of the method: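 THP1-Dual cells (~25,000/well) were preincubated 30 min with serially diluted compounds, then stimulated with 10 ng/mL L18-MDP (final) for 20-24 h at 37 °C. Supernatant SEAP was read with QUANTI-Blue at OD 620-655 nm after 2 h. IC50 came from non-linear fits of % inhibition versus DMSO/L18-MDP controls after media-blank subtraction.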

[4] = RIPK2/XIAP binding competition PPI assay, Amax
[5] = RIPK2/XIAP binding competition PPI assay

T2 sequence (O43353 1-310 limits assumed): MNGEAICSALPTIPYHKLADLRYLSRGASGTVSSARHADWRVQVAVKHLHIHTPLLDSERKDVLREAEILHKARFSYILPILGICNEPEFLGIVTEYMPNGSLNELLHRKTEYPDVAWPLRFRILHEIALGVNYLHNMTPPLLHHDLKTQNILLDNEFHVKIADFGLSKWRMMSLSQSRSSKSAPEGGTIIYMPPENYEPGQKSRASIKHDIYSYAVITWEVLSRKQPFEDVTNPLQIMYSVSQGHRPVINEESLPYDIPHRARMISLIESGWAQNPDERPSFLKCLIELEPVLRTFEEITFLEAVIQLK
T1 sequence (O43353 1-310): as the sequence (O43353 1-310 limits assumed) above

| SMILES | IC50 [1] | Emax [2, 4] | IC50 [2, 5] | IC50 [3] | Emax [2] |
| --- | --- | --- | --- | --- | --- |
| COc1cc2ncc(-c3ccc4nc(N)n(C)c4c3)n2cc1S(=O)(=O)C(C)(C)C [Example 100, 6-(6-(tert-butylsulfonyl)-7-methoxyimidazo[1,2-a]pyridin-3-yl)-1-methyl-1H-benzo[d]imidazol-2-amine] | 2.5 to 20 nM | < 30% | > 20 nM | > 1000 nM |  |
| COc1c(F)cc(-c2cnc3cc(OC[C@@H](C)O)c(S(=O)(=O)C(C)(C)C)cn23)cc1NS(=O)(=O)c1cnn(C)c1 [Example 253, (R)-N-(5-(6-(tert-butylsulfonyl)-7-(2-hydroxypropoxy)imidazo [1,2-a]pyridin-3-yl)-3-fluoro-2-methoxyphenyl)-1-methyl-1H-pyrazole-4-sulfonamide] | 1 to 2.5 nM | > 80% | < 1 nM | < 50 nM |  |
| C[C@H](O)COc1cc2ncc(-c3cc(Cl)c(N)nc3F)n2cc1S(=O)(=O)C(C)(C)C [Example 169, (S)-1-((3-(6-amino-5-chloro-2-fluoropyridin-3-yl)-6-(tert-butylsulfonyl)imidazo[1,2-a]pyridin-7-yl)oxy)propan-2-ol] | 1 to 2.5 nM | > 80% | 1 to 2.5 nM | 50 to 250 nM |  |
| C[C@H](O)CCOc1cc2ncc(-c3cc(F)c(N)nc3F)n2cc1S(=O)(=O)C(C)(C)C [Example 34, (S)-4-((3-(6-amino-2,5-difluoropyridin-3-yl)-6-(tert-butylsulfonyl)imidazo[1,2-a]pyridin-7-yl)oxy)butan-2-ol] | 2.5 to 20 nM | > 80% | 2.5 to 20 nM | 250 to 1000 nM |  |
| COc1cc2ncc(-c3cc(NS(=O)(=O)C4(CO)CC4)c(OC)c(OC)c3)n2cc1S(=O)(=O)C(C)(C)C [Example 178, N-(5-(6-(tert-butylsulfonyl)-7-methoxyimidazo[1,2-a]pyridin-3-yl)-2,3-dimethoxyphenyl)-1-(hydroxymethyl)cyclopropane-1-sulfonamide] | < 1 nM | > 80% | < 1 nM | < 50 nM |  |
| CCCS(=O)(=O)Nc1cc(-c2cnc3cc(OC)c(C(=O)N4CCNCC4)cn23)cc(F)c1OC [Example 191, N-(3-fluoro-2-methoxy-5-(7-methoxy-6-(piperazine-1-carbonyl)imidazo[1,2-a]pyridin-3-yl)phenyl)propane-1-sulfonamide] | 2.5 to 20 nM | > 80% | 2.5 to 20 nM | > 1000 nM |  |
| COc1cc2ncc(-c3cc(F)c(N)nc3F)n2cc1C1CCCN(C)C1=O (centres unmarked) [Example 213, 3-(3-(6-amino-2,5-difluoropyridin-3-yl)-7-methoxyimidazo[1,2-a]pyridin-6-yl)-1-methylpiperidin-2-one] | > 20 nM | 55 to 80% | > 20 nM | > 1000 nM |  |
| COc1cc2ncc(-c3cnc4c(c3)OCC4O)n2cc1S(=O)(=O)C(C)(C)C (centres unmarked) [Example 87, 6-(6-(tert-butylsulfonyl)-7-methoxyimidazo[1,2-a]pyridin-3-yl)-2,3-dihydrofuro[3,2-b]pyridin-3-ol] | > 20 nM | 30 to 55% | > 20 nM | > 1000 nM |  |
| CC(C)(C)S(=O)(=O)c1cn2c(-c3ccc(N)nc3F)cnc2cc1OCCO [Example 249, 2-((3-(6-amino-2-fluoropyridin-3-yl)-6-(tert-butylsulfonyl)imidazo [1,2-a]pyridin-7-yl)oxy)ethan-1-ol] | > 20 nM | > 80% | > 20 nM | > 1000 nM |  |
| COc1cc2ncc(-c3cc(F)c(OC)c4[nH]cnc34)n2cc1S(=O)(=O)C(C)(C)C [Example 117, 4-(6-(tert-butylsulfonyl)-7-methoxyimidazo[1,2-a]pyridin-3-yl)-6-fluoro-7-methoxy-1H-benzo[d]imidazole] | 2.5 to 20 nM | 30 to 55% | 2.5 to 20 nM | 250 to 1000 nM |  |
| Cn1ccc(COc2cc3ncc(-c4cc(F)c(N)nc4F)n3cc2S(=O)(=O)C(C)(C)C)n1 [Example 25, 5-(6-(tert-butylsulfonyl)-7-((1-methyl-1H-pyrazol-3-yl)methoxy)imidazo[1,2-a]pyridin-3-yl)-3,6-difluoropyridin-2-amine] | 2.5 to 20 nM | > 80% | 2.5 to 20 nM | 250 to 1000 nM |  |
| COc1cc2ncc(-c3ccc4c(c3)nc(N)n4C)n2cc1S(=O)(=O)C(C)(C)C [Example 115, 5-(6-(tert-butylsulfonyl)-7-methoxyimidazo[1,2-a]pyridin-3-yl)-1-methyl-1H-benzo[d]imidazol-2-amine] | > 20 nM | 55 to 80% | > 20 nM | > 1000 nM |  |
| COc1cc2ncc(-c3ccc4c(N)nccc4c3)n2cc1S(=O)(=O)C(C)(C)C [Example 90, 6-(6-(tert-butylsulfonyl)-7-methoxyimidazo[1,2-a]pyridin-3-yl)isoquinolin-1-amine] | 2.5 to 20 nM | < 30% | > 20 nM | 250 to 1000 nM |  |
| CCCS(=O)(=O)Nc1cc(-c2cnc3cc(OC)c(C4(O)CCOCC4)cn23)cc(F)c1OC [Example 127, N-(3-fluoro-5-(6-(4-hydroxytetrahydro-2H-pyran-4-yl)-7-methoxyimidazo[1,2-a]pyridin-3-yl)-2-methoxyphenyl)propane-1-sulfonamide] | 1 to 2.5 nM | > 80% | 1 to 2.5 nM | 50 to 250 nM |  |
| COc1cc2ncc(-c3cc(F)c(OC)c(NS(=O)(=O)c4ccccc4)c3)n2cc1S(=O)(=O)C(C)(C)C [Example 281, N-(5-(6-(tert-butylsulfonyl)-7-methoxyimidazo[1,2-a]pyridin-3-yl)-3-fluoro-2-methoxyphenyl)benzenes ulfonamide] | < 1 nM | > 80% | < 1 nM | < 50 nM |  |
| COc1cn2ncc(-c3cc(F)c(OC)c(NS(=O)(=O)c4cnn(C)c4)c3)c2nc1OC [Example 211, N-(5-(5,6-dimethoxypyrazolo[1,5-a]pyrimidin-3-yl)-3-fluoro-2-methoxyphenyl)-1-methyl-1H-pyrazole-4-sulfonamide] | 2.5 to 20 nM | > 80% | 2.5 to 20 nM | > 1000 nM |  |
| CC(C)(C)S(=O)(=O)c1cn2c(-c3cc(F)c(N)nc3F)cnc2cc1OCCO [Example 12, 2-((3-(6-amino-2,5-difluoropyridin-3-yl)-6-(tert-butylsulfonyl)imidazo[1,2-a]pyridin-7-yl)oxy)ethan-1-ol] | 2.5 to 20 nM |  | 2.5 to 20 nM | 50 to 250 nM | > 80% |
| COc1cc2ncc(-c3cc(F)c(N)nc3F)n2cc1P1(=O)CCN(C)CC1 [Example 79, 4-(3-(6-amino-2,5-difluoropyridin-3-yl)-7-methoxyimidazo[1,2-a]pyridin-6-yl)-1-methyl-1,4-azaphosphinane 4-oxide] | > 20 nM | > 80% | > 20 nM | > 1000 nM |  |
| COc1cc2ncc(-c3cc(F)c(OC)c4[nH]c(CCO)nc34)n2cc1S(=O)(=O)C(C)(C)C [Example 184, 2-(4-(6-(tert-butylsulfonyl)-7-methoxyimidazo[1,2-a]pyridin-3-yl)-6-fluoro-7-methoxy-1H-benzo[d]imidazol-2-yl)ethan-1-ol] | 1 to 2.5 nM | 30 to 55% | 1 to 2.5 nM | 250 to 1000 nM |  |
| Nc1cc(-c2cnc3ccc(C(F)(F)F)cn23)cc(F)n1 [Example 4, 6-fluoro-4-(6-(trifluoromethyl)imidazo[1,2-a]pyridin-3-yl)pyridin-2-amine] | > 20 nM | < 30% | > 20 nM | 250 to 1000 nM |  |
| COc1cc2ncc(-c3cc(F)c(OC)c(NS(=O)(=O)c4cnn(C)c4)c3)n2cc1S(C)(=O)=O [Example 214, N-(3-fluoro-2-methoxy-5-(7-methoxy-6-(methylsulfonyl)imidazo[1,2-a]pyridin-3-yl)phenyl)-1-methyl-1H-pyrazole-4-sulfonamide] | < 1 nM | > 80% | < 1 nM | 50 to 250 nM |  |
| COc1cc2ncc(-c3cc(F)c(OC)c(NS(=O)(=O)c4cnn(C)c4C)c3)n2cc1S(=O)(=O)C(C)(C)C [Example 280, N-(5-(6-(tert-butylsulfonyl)-7-methoxyimidazo[1,2-a]pyridin-3-yl)-3-fluoro-2-methoxyphenyl)-1,5-dimethyl-1H-pyrazole-4-sulfonamide] | 1 to 2.5 nM | > 80% | 1 to 2.5 nM | 50 to 250 nM |  |
| COc1cc2ncc(-c3ccc4ncoc4c3)n2cc1S(=O)(=O)C(C)(C)C [Example 110, 6-(6-(tert-butylsulfonyl)-7-methoxyimidazo[1,2-a]pyridin-3-yl)benzo[d]oxazole] | > 20 nM | < 30% | > 20 nM | > 1000 nM |  |
